Measured values as given in patent US20230372350A1, “ASTROCYTIC TRPA1 CHANNEL INHIBITION AS A NOVEL NEUROPROTECTIVE THERAPEUTIC TARGET IN THE PRODROMAL PHASES OF ALZHEIMER'S DISEASE” (priority 2020, published 2023).

Legend:
[1] = system: CA1 pyramidal neurons of APP/PS1-21 and WT mice; assay: Chronic intraperitoneal treatment: whole-cell recording of sEPSCs of CA1 pyramidal neurons; assay type: in vivo, mouse
Description: The used model is a transgenic murine model obtained on a C57BL/6J genetic background which co-expresses the mutated human form of the amyloid precursor protein (mutated APP KM670/671NL) and of presenilin 1 (mutated PS1 L166P) under the control of the neural promoter Thy1. The presence of these two mutations allows increased production of the Aβ peptide from the 14th postnatal day. This leads to cerebral amyloidosis with the appearance of the first senile plaques around 8 postnatal weeks. This amyloid pathology is accompanied by inflammatory gliosis (microgliosis and astrogliosis detectable from 4 months), dendritic spine dystrophy and tau hyperphosphorylation (around 8 months). Cognitive behavioral disorders, and in particular of learning and spatial memory, are developed in around 6 to 8 months. This model was set-up and described by Rebecca Radde in 2006 (Radde et al., EMBO reports, 2006) and is widely used by the scientific community. This model is available in the animal facility of the Institut des Neurosciences de Grenoble and has been bred by the inventors since 2014. This solution is then diluted to 1 μg/μl in an isotonic solution containing 1% Pluronic F-127 and 0.9% NaCl. The animals are injected daily intraperitoneally at a dose of 5 mg/kg of body mass. Sterile 0.5 ml BD MicroFine syringes with no dead volume, equipped with a 30G (0.3 mm) needle are used for the injections. The carrier (10% DMSO, 1% Pluronic F-127, 0.9% NaCl) is used as a control and is also injected daily, according to the same procedure, into the WT and APP/PS1 control animals (carrier groups). The injection is started from the 14th postnatal day (appearance of the expression of the Thy1gene promoter in the hippocampus, triggering the overexpression of Aβ in the APP/PS1-21 murine model) Coronal sections of the hippocampus (thickness 300 μm) were prepared from APP/PS1-21 transgenic mice (1 month and 3 months old) or from WT mice from the same litter. The mice were sacrificed by decerebration and decapitation. The brain was quickly removed and sectioned in ice-cold ACSF containing (in mM) : 2.5 KCl, 7 MgCl2, 0.5 CaCl2, 1.2 NaHPO4, 25 NaHCO3, 11D-glucose and 234 sucrose bubbled with 95% of O2 and 5% of CO2 with a V[…] vibratome (Leica, Germany). The sections containing the hippocampus were placed in ACSF containing (in mM) : 126 NaCl, 2.5 KCl, 1.2 MgCl2, 2.5 CaCl2, 1.2 NaH2PO4 bubbled with 95% of O2 and 5% of CO2 and supplemented with 1 mM of sodium pyruvate at room temperature for a recovery period. Whole-cell recordings were performed on visually identified CA1 pyramidal neuron somas. The patch pipettes (4-6 MΩ) were filled with an internal solution containing (in mM): 105 K-gluconate, 30 KCL, 10 phosphocreatine, 10 HEPES, 4 ATP-Mg, 0.3 GTP-Tris, 0.3 EGTA, adjusted to pH 7.2 with KOH. Spontaneously excitatory postsynaptic currents (sEPSCs) were collected at a membrane holding potential of -60 mV which is close to the GABA reversal potential. All recordings were made at room temperature (22-24° C.) and only a single neuron was studied per section. The sEPSCs and their kinetics were analyzed, after a stabilization period of 10 minutes, 5 minutes from the recordings. Access resistance was constantly monitored and recordings were excluded from this study when this parameter varied more than 20% during the experiment. Recordings were analyzed using the Clampfit module of pClamp8 software (Molecular Devices, USA) with a single one at 20 pA to exclude miniature sEPSCs.

WT control animals = assay: Chronic intraperitoneal treatment: overall effect on WT control animals; assay type: in vivo; conditions: daily injection from the 14th to the 90th postnatal day
Description: This solution is then diluted to 1 μg/μl in an isotonic solution containing 1% Pluronic F-127 and 0.9% NaCl. The animals are injected daily intraperitoneally at a dose of 5 mg/kg of body mass. Sterile 0.5 ml BD MicroFine syringes with no dead volume, equipped with a 30G (0.3 mm) needle are used for the injections.
The injection is started from the 14th postnatal day (appearance of the expression of the Thy1gene promoter in the hippocampus, triggering the overexpression of Aβ in the APP/PS1-21 murine model)

human forms of TRPA1 = human forms of TRPA1 (Homo sapiens, UniProt O75762); conditions: McNamara et al. 2007, read-out: CI50 (the source's name); cited from earlier work
rodent forms of TRPA1 = conditions: McNamara et al. 2007, Eid et al. 2008, read-out: CI50 (the source's name); cited from earlier work
[2] = APP/PS1-21 mice, 3 months, 5 mg/kg i.p. from 14th postnatal day
[3] = WT mice, 3 months, chronic treatment 5 mg/kg i.p.

Sequence of human forms of TRPA1 (O75762 whole entry): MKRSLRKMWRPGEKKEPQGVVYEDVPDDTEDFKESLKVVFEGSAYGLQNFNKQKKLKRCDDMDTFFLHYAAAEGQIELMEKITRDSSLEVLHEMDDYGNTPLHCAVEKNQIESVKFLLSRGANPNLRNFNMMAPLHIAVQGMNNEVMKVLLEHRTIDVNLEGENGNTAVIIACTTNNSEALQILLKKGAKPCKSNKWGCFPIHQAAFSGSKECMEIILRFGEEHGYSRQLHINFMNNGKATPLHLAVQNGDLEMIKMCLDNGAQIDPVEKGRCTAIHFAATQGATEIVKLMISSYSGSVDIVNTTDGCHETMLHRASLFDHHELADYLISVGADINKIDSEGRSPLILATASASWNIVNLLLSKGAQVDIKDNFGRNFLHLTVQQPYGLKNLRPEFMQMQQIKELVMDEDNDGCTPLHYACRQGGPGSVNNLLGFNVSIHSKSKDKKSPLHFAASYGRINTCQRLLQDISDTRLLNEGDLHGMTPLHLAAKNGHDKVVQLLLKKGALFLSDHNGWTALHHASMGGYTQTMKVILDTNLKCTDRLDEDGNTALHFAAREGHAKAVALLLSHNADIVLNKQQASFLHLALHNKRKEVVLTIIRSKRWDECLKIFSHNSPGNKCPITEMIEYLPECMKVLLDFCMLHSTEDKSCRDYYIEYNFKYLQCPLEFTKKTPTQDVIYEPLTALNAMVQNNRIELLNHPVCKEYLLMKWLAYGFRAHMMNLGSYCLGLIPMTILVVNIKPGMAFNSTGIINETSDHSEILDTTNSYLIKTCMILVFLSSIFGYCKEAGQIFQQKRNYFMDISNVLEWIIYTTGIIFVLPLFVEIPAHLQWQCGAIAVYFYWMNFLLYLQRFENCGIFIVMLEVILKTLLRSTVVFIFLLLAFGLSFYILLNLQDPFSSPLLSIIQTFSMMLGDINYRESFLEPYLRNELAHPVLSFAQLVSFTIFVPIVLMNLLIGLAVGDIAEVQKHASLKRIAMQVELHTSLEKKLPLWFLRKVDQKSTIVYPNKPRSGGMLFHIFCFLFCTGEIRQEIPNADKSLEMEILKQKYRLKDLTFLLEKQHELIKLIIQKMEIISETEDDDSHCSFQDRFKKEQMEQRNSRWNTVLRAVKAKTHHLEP

## CC(C)c1ccc(NC(=O)Cn2cnc3c2c(=O)n(C)c(=O)n3C)cc1 [HC030031, 2-(1,3-Dimethyl-2,6-dioxo-1,2,3,6-tetrahydro-7H-purin-7-yl)-N-(4-isopropylphenyl)acetamide]
[1]; 1-month old mice, 5 mg/kg i.p. daily from 14th postnatal day
  sEPSC amplitude: no impact
[1]; [2]
  amplitude of sEPSCs: 33.4±1.4 pA
  frequency of sEPSCs: 0.10±0.01 Hz
[1]; APP/PS1-21 transgenic mice, 1 month, 5 mg/kg i.p. daily from 14th postnatal day
  frequency of sEPSCs: 0.10±0.02 Hz
[1]; WT litter mice, 1 month, 5 mg/kg i.p. daily from 14th postnatal day
  frequency of sEPSCs: 0.10±0.04 Hz
[1]; [3]
  amplitude of the sEPSCs: no effect
  frequency of the sEPSCs: no effect
WT control animals
  effect at the functional level and at the structural level: no effect
Human forms of TRPA1
  IC50: ~6.2 µM
Rodent forms of TRPA1
  IC50: 7.6 µM
